Assay results as given in patent publication US20250186391A1, “ORAL COMPLEMENT FACTOR D INHIBITORS” (BioCryst Pharmaceuticals, Inc., priority 2019, published 2025).

target: Factor D (Homo sapiens (Human), UniProt P00746); assay: Factor D esterolytic assay; type: biochemical; conditions: Z-Lys-SBzl substrate, 100 mM HEPES, 500 mM NaCl, pH 7.5, 10% DMSO; tested a minimum of three times; read-out: Measured Ki (IC50) Value for Compounds: IC50
In short: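 Buffer was 100 mM HEPES, 500 mM NaCl, pH 7.5 with 10% DMSO. Compound and Factor D were combined, then Z-Lys-SBzl (1.29 mM) was added either at once or following room-temperature incubation. Rates came from DTNB colour at 405 nm minus 690 nm over 600 s, with percent inhibition giving IC50 over at least three tests.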

Sequence of Factor D (P00746 26-253): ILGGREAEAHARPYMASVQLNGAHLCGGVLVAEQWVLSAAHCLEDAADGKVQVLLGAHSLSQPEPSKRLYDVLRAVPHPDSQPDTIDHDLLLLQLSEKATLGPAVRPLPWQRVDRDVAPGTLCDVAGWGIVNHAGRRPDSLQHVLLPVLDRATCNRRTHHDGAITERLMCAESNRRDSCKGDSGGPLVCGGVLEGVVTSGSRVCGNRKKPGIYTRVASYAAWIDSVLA

Compound | IC50 [nM]
NCc1cccc(-c2cc(Cl)cc3c(COc4ccccc4CC(=O)O)coc23)c1 [Compound 193b, 2-(2-((7-(3-(aminomethyl)phenyl)-5-chlorobenzofuran-3-yl)methoxy)phenyl)acetic acid] | 1000 to 10000
NCc1cc(-c2cc3c(COc4ccccc4CC(=O)O)coc3c3ccoc23)ccn1 [Compound 288d, 2-(2-((5-(2-(aminomethyl)pyridin-4-yl)benzo[1,2-b:3,4-b′]difuran-3-yl)methoxy)phenyl)acetic acid] | < 1000
COc1ccc(CC(=O)O)c(OCc2nn(C)c3ccc(-c4ccnc(CN)c4F)cc23)c1 [Compound 316c, 2-(2-((5-(2-(aminomethyl)-3-fluoropyridin-4-yl)-1-methyl-1H-indazol-3-yl)methoxy)-4-methoxyphenyl)acetic acid] | < 1000
NCc1cccc(-c2cc(C(=O)O)cc3cc(COc4ccccc4CC(=O)O)oc23)c1 [Compound 37b, 7-(3-(aminomethyl)phenyl)-2-((2-(carboxymethyl)phenoxy)methyl)benzofuran-5-carboxylic acid] | 1000 to 10000
COc1c(-c2ccc3c(c2)c(COc2ccccc2CC(=O)O)nn3C(C)C)ccnc1CN [Compound 326d, 2-(2-((5-(2-(aminomethyl)-3-methoxypyridin-4-yl)-1-isopropyl-1H-indazol-3-yl)methoxy)phenyl)acetic acid] | 1000 to 10000
NCc1cccc(-c2ccc3c(c2)c(COc2ccccc2CC(=O)O)nn3-c2ccccc2)c1 [Compound 144h, 2-(2-((5-(3-(aminomethyl)phenyl)-1-phenyl-1H-indazol-3-yl)methoxy)phenyl)acetic acid] | < 1000
COc1ccc(CC(=O)O)c(OCc2coc3ccc(-c4cccc(CN)c4)cc23)c1 [Compound 48b, 2-(2-((5-(3-(aminomethyl)phenyl)benzofuran-3-yl)methoxy)-4-methoxyphenyl)acetic acid] | < 1000
CC(C)n1cc(-c2cc(-c3cccc(CN)c3)cc3c(COc4ccccc4CC(=O)O)coc23)cn1 [Compound 130c, 2-(2-((5-(3-(aminomethyl)phenyl)-7-(1-isopropyl-1H-pyrazol-4-yl)benzofuran-3-yl)methoxy)phenyl)acetic acid] | < 1000
COc1c(CN)cccc1-c1cc(OC)c2occ(COc3ccccc3CC(=O)O)c2c1 [Compound 324d, 2-(2-((5-(3-(aminomethyl)-2-methoxyphenyl)-7-methoxybenzofuran-3-yl)methoxy)phenyl)acetic acid] | < 1000
NCc1cccc(-c2cc(OCc3nccs3)c3occ(COc4ccccc4CC(=O)O)c3c2)c1 [Compound 196f, 2-(2-((5-(3-(aminomethyl)phenyl)-7-(thiazol-2-ylmethoxy)benzofuran-3-yl)methoxy)phenyl)acetic acid] | < 1000
NCc1cccc(-c2cc(COc3ccccc3)cc3cc(COc4ccccc4CC(=O)O)oc23)c1 [Compound 33f, 2-(2-((7-(3-(aminomethyl)phenyl)-5-(phenoxymethyl)benzofuran-2-yl)methoxy)phenyl)acetic acid] | < 1000

Now from value to compound:

IC50 [nM] | Compound
< 1000 | COc1ccc(CC(=O)O)c(OCc2c(C)oc3ccc(-c4cccc(CN)c4O)cc23)c1 [Compound 244d, 2-(2-((5-(3-(aminomethyl)-2-hydroxyphenyl)-2-methylbenzofuran-3-yl)methoxy)-4-methoxyphenyl)acetic acid]
< 1000 | Cc1ccc(CC(=O)O)c(OCc2coc3c2cc(-c2cccc(CN)c2)c2occc23)c1 [Compound 230c, 2-(2-((5-(3-(aminomethyl)phenyl)benzo[1,2-b:3,4-b′]difuran-3-yl)methoxy)-4-methylphenyl)acetic acid]
< 1000 | CC(C(=O)O)c1ccccc1OCc1coc2c(NCC3CCCC3)cc(-c3cccc(CN)c3)cc12 (centres unmarked) [Compound 186c, 2-(2-((5-(3-(aminomethyl)phenyl)-7-((cyclopentylmethyl)amino)benzofuran-3-yl)methoxy)phenyl)propanoic acid]
< 1000 | COc1ccc(CC(=O)O)c(OCc2nn(C)c3ccc(-c4cccc(CN)c4F)cc23)c1 [Compound 309b, 2-(2-((5-(3-(aminomethyl)-2-fluorophenyl)-1-methyl-1H-indazol-3-yl)methoxy)-4-methoxyphenyl)acetic acid]
< 1000 | Cc1ccc(CC(=O)O)c(OCc2c3cc(-c4cccc(CN)c4)ccc3nn2C(C)C)c1 [Compound 256c, 2-(2-((5-(3-(aminomethyl)phenyl)-2-isopropyl-2H-indazol-3-yl)methoxy)-4-methylphenyl)acetic acid]
< 1000 | COc1ccc(CC(=O)O)c(OCc2coc3c(NCC(C)C)cc(-c4cccc(CN)c4)cc23)c1 [Compound 279c, 2-(2-((5-(3-(aminomethyl)phenyl)-7-(isobutylamino)benzofuran-3-yl)methoxy)-4-methoxyphenyl)acetic acid]
< 1000 | COCCNc1cc(-c2cccc(CN)c2)cc2c(COc3ccccc3CC(=O)O)coc12 [Compound 296d, 2-(2-((5-(3-(aminomethyl)phenyl)-7-((2-methoxyethyl)amino)benzofuran-3-yl)methoxy)phenyl)acetic acid]
< 1000 | NCc1cccc(-c2ccc3c(c2)c(COc2ccccc2CC(=O)O)nn3C2CCCC2)c1 [Compound 292c, 2-(2-((5-(3-(aminomethyl)phenyl)-1-cyclopentyl-1H-indazol-3-yl)methoxy)phenyl)acetic acid]
< 1000 | CC(C)n1nc(COc2ccccc2CC(=O)O)c2cc(-c3cccc([C@H](N)CO)c3)ccc21 [Compound 267b, (S)-2-(2-((5-(3-(1-amino-2-hydroxyethyl)phenyl)-1-isopropyl-1H-indazol-3-yl)methoxy)phenyl)acetic acid]
< 1000 | Cn1ccc(COc2cc(-c3cccc(CN)c3)cc3c(COc4ccccc4CC(=O)O)coc23)n1 [Compound 198f, 2-(2-((5-(3-(aminomethyl)phenyl)-7-((1-methyl-1H-pyrazol-3-yl)methoxy)benzofuran-3-yl)methoxy)phenyl)acetic acid]
< 1000 | Cc1cc(-c2cc(-c3cccc(CN)c3)cc3c(COc4ccccc4CC(=O)O)coc23)cn(C)c1=O [Compound 224c, 2-(2-((5-(3-(aminomethyl)phenyl)-7-(1,5-dimethyl-6-oxo-1,6-dihydropyridin-3-yl)benzofuran-3-yl)methoxy)phenyl)acetic acid]
< 1000 | COc1ccc(CC(=O)O)c(OCc2c(C)oc3ccc(-c4cccc(CN)c4F)cc23)c1 [Compound 201b, 2-(2-((5-(3-(aminomethyl)-2-fluorophenyl)-2-methylbenzofuran-3-yl)methoxy)-4-methoxyphenyl)acetic acid]
< 1000 | CN(Cc1cc(-c2cccc(CN)c2)cc2c(COc3ccccc3CC(=O)O)coc12)C1CC1 [Compound 261e, 2-(2-((5-(3-(aminomethyl)phenyl)-7-((cyclopropyl(methyl)amino)methyl)benzofuran-3-yl)methoxy)phenyl)acetic acid]
< 1000 | Cc1ccc(CC(=O)O)c(OCc2c(C(C)(C)C)oc3ccc(-c4cccc(CN)c4)cc23)c1 [Compound 176c, 2-(2-((5-(3-(aminomethyl)phenyl)-2-(tert-butyl)benzofuran-3-yl)methoxy)-4-methylphenyl)acetic acid]
< 1000 | Cc1ccc(CC(=O)O)c(OCc2coc3c(C)cc(-c4cccc(CN)c4)cc23)c1 [Compound 313c, 2-(2-((5-(3-(aminomethyl)phenyl)-7-methylbenzofuran-3-yl)methoxy)-4-methylphenyl)acetic acid]
